Here are results for one molecule from ChEMBL document CHEMBL3886634, “Substituted 3-haloallylamine inhibitors of ASSAO and uses thereof” (2016).

Experiment [1] concerns the target T1, Amine oxidase [flavin-containing] B (Homo sapiens, UniProt P27338).
T1 sequence (P27338 whole entry): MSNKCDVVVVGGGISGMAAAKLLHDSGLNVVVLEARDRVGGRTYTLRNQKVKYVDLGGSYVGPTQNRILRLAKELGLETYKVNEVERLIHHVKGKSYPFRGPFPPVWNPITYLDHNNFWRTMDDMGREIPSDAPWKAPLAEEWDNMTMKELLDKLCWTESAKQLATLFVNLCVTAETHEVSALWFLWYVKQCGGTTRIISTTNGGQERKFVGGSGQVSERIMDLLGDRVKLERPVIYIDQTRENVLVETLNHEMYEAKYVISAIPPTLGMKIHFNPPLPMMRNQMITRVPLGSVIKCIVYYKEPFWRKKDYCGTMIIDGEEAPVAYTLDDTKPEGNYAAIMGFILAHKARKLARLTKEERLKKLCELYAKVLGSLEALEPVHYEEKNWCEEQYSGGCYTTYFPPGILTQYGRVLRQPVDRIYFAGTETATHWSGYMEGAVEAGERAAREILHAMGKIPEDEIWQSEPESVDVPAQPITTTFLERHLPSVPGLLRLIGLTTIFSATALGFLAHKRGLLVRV

Experiment [2] concerns the target T2, Diamine oxidase [copper-containing] (Homo sapiens, UniProt P19801).
T2 sequence (P19801 whole entry): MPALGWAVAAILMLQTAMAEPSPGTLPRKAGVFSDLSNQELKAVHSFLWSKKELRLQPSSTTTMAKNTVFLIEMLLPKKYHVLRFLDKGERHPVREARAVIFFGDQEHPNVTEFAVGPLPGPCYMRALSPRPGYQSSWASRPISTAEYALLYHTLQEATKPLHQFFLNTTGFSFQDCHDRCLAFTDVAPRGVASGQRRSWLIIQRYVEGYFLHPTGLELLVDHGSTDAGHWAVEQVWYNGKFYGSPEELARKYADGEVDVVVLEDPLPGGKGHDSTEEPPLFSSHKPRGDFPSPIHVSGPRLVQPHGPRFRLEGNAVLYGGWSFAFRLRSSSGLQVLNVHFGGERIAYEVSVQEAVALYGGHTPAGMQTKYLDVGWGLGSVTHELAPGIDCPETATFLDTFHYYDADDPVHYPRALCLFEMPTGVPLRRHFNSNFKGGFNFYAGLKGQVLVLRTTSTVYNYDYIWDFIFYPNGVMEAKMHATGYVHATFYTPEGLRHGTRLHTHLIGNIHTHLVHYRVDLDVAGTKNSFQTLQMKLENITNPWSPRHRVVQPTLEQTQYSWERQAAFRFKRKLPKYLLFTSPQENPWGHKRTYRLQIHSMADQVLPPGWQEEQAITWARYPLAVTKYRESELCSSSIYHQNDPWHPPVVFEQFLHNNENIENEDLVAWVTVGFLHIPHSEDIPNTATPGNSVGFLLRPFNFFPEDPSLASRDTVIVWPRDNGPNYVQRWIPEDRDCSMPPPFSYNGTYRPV
Kind of experiment: DAO Inhibition Assay: Recombinant human DAO (2.4 μg/mL) was used as source of DAO enzyme activities.

On to `NC/C(=C/F)CCc1ccc(F)cc1` [MOFEGILINE], for which the IC50 in experiment [1] was 5 nM; in experiment [2], over 10 µM.

Broadly, the IC50 is the concentration that inhibits the measured activity by half.
